Test results taken from ChEMBL document CHEMBL1932917, “4,5-dihydropyridazin-3-one derivatives as histamine H₃ receptor inverse agonists” (Bioorg Med Chem Lett, 2012).

Assays:
[1] = biological target: T1, Histamine H3 receptor (Homo sapiens, UniProt Q9Y5N1); test: Displacement of [3H]NAMH from human histamine H3 receptor expressed in CHO cells; assay type: cell-based
[2] = biological target: Histamine H3 receptor (Rattus norvegicus, UniProt Q9QYN8); test: Displacement of [3H]NAMH from rat histamine H3 receptor expressed in CHO cells; assay type: cell-based
[3] = (§1) Oral bioavailability in rat at 5 mg/kg; assay type: ADME, organism-based; settings: in vivo
[4] = biological target: Cytochrome P450 2D6 (Homo sapiens, UniProt P10635); test: Inhibition of CYP2D6; assay type: ADME
[5] = (§2) Cmax in rat at 5 mg/kg, po; assay type: ADME, organism-based; set-up: dose 5 mg/kg, route oral; settings: in vivo
[6] = (§3) AUC in rat at 5 mg/kg, po; assay type: ADME, organism-based, Plasma; set-up: dose 5 mg/kg, route oral; settings: plasma
[7] = (§4) Half life in rat at 1 mg/kg, iv; assay type: ADME, organism-based; set-up: dose 1 mg/kg, route intravenous; settings: in vivo
[8] = Half life in monkey liver microsomes; assay type: ADME, Macaca mulatta, Microsome; settings: rhesus monkey
[9] = biological target: T2, Cytochrome P450 1A2 (Homo sapiens, UniProt P05177); test: Inhibition of CYP1A2; assay type: ADME
T2 sequence (P05177 whole entry): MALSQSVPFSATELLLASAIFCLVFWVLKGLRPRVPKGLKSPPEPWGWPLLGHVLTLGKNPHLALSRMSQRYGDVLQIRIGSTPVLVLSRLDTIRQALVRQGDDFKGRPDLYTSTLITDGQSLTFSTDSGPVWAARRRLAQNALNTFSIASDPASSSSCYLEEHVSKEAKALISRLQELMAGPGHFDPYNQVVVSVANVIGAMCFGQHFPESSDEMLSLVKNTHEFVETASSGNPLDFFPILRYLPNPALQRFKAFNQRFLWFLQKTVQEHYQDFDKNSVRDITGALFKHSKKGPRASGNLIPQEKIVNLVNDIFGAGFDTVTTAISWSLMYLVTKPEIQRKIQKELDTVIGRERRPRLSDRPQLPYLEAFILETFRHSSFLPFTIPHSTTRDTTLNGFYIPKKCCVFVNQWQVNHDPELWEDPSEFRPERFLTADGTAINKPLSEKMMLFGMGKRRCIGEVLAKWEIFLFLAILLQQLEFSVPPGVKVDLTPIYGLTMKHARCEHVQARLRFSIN

[10] = biological target: T1, Histamine H3 receptor; test: Inverse agonist activity at human histamine H3 receptor by [35S]GTPgammaS binding assay; assay type: functional
[11] = Ratio of drug level in brain to plasma in rat at 10 mg/kg, ip after 6 hrs; assay type: ADME, organism-based; set-up: dose 10 mg/kg, route intraperitoneal
[12] = Half life in human liver microsomes; assay type: ADME, Microsome
[13] = (§5) Volume of distribution in rat at 1 mg/kg, iv; assay type: ADME, organism-based; set-up: dose 1 mg/kg, route intravenous; settings: in vivo
[14] = Half life in dog liver microsomes; assay type: ADME, Canis lupus familiaris, Microsome
[15] = biological target: Cytochrome P450 2C19 (Homo sapiens, UniProt P33261); test: Inhibition of CYP2C19; assay type: ADME
[16] = Half life in mouse liver microsomes; assay type: ADME, Microsome
[17] = Half life in rat liver microsomes; assay type: ADME, Microsome
[18] = biological target: Cytochrome P450 2C9 (Homo sapiens, UniProt P11712); test: Inhibition of CYP2C9; assay type: ADME
[19] = biological target: Cytochrome P450 3A4 (Homo sapiens, UniProt P08684); test: Inhibition of CYP3A4; assay type: ADME
[20] = test system: Rattus norvegicus; test: as §1; assay type: ADME, organism-based; settings: in vivo
[21] = test system: Rattus norvegicus; test: as §2; assay type: ADME, organism-based; set-up: dose 5 mg/kg, route oral; settings: in vivo
[22] = test system: Rattus norvegicus; test: as §3; assay type: ADME, organism-based, Plasma; set-up: dose 5 mg/kg, route oral; settings: in vivo
[23] = test system: Rattus norvegicus; test: as §4; assay type: ADME, organism-based; set-up: dose 1 mg/kg, route intravenous; settings: in vivo
[24] = test system: Rattus norvegicus; test: as §5; assay type: ADME, organism-based; set-up: dose 1 mg/kg, route intravenous; settings: in vivo
[25] = biological target: T1, Histamine H3 receptor; test: Antagonist activity at human histamine H3 receptor by [35S]GTPgammaS binding assay; assay type: functional

T1 sequence (Q9Y5N1 whole entry): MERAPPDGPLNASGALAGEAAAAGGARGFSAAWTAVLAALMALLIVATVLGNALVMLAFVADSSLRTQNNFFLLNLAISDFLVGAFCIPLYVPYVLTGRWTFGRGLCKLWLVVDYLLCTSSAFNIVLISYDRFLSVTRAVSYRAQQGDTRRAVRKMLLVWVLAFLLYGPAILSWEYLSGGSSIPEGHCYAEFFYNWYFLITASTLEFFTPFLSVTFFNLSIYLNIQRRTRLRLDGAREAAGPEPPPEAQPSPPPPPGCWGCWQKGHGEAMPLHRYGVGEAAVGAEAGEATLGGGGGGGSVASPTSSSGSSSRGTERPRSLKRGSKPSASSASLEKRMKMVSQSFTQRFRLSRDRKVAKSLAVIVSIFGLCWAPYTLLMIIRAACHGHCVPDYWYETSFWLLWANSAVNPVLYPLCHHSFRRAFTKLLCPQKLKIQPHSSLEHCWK
Chain of Histamine H3 receptor (Rattus norvegicus, UniProt Q9QYN8) (Q9QYN8 whole entry): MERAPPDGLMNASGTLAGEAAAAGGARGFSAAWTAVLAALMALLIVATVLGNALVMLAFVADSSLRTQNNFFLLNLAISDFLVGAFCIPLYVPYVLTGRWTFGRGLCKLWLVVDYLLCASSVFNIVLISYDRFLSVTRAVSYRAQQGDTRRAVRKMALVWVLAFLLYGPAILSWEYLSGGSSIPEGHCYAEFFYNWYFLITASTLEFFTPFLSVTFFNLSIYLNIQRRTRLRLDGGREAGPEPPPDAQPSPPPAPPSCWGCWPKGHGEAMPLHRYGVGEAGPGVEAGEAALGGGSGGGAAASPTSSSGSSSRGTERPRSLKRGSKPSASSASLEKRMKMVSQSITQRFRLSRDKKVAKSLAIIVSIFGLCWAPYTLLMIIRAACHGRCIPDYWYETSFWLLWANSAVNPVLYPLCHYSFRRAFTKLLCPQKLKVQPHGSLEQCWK
Chain of Cytochrome P450 3A4 (P08684 whole entry): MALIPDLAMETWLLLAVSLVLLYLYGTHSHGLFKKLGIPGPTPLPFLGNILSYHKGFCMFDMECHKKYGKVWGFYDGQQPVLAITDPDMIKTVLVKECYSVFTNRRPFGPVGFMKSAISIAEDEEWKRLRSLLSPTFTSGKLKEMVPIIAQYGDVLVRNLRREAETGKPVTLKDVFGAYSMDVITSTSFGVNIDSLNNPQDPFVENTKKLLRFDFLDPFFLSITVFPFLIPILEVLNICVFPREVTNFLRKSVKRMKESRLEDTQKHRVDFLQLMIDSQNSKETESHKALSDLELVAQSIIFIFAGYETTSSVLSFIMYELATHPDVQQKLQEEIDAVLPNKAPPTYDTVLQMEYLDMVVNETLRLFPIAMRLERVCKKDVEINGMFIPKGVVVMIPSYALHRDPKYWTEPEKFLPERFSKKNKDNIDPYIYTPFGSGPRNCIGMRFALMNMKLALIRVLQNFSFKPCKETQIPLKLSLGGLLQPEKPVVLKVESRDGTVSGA
Chain of Cytochrome P450 2D6 (P10635 whole entry): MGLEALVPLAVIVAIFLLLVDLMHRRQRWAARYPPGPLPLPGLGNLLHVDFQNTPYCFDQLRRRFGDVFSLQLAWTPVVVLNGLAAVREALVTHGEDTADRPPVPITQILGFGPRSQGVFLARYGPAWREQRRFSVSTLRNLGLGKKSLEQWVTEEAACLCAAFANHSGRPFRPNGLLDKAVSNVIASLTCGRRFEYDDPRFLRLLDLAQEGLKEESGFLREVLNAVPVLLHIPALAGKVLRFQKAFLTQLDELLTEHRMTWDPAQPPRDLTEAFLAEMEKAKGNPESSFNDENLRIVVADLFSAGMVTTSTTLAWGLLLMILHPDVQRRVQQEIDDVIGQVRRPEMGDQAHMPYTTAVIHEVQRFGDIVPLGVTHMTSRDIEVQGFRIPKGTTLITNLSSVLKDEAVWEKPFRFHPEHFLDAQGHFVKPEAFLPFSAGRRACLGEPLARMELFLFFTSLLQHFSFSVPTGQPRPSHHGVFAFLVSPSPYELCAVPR
Chain of Cytochrome P450 2C19 (P33261 whole entry): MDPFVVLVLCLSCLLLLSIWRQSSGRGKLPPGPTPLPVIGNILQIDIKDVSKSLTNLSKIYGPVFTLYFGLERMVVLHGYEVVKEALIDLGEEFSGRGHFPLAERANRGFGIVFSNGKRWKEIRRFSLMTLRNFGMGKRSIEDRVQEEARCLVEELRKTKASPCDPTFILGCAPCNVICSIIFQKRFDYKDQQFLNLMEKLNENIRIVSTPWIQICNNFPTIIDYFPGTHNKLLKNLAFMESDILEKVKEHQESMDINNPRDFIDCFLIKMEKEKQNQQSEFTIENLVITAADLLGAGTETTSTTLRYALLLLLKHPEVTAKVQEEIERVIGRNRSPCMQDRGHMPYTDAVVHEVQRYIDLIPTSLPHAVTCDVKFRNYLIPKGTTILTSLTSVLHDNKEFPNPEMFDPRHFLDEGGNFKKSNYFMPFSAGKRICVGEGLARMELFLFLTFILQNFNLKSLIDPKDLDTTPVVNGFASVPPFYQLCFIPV
Chain of Cytochrome P450 2C9 (P11712 whole entry): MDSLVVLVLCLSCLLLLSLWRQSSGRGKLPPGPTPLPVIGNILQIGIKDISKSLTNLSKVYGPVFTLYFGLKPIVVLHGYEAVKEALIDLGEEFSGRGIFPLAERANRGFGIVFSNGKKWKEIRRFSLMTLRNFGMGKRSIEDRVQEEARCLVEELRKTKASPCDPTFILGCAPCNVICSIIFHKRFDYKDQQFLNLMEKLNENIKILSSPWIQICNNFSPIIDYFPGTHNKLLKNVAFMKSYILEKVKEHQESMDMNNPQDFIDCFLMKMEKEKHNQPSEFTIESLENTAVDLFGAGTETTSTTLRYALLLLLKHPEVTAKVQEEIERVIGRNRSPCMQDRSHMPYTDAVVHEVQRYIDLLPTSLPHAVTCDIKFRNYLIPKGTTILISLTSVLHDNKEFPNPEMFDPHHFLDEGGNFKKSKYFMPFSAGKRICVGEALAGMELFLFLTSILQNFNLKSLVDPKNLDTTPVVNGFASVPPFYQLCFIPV

C[C@@H]1CCCN1CCCOc1ccc(C2=NNC(=O)CC2(C)C)cc1
Ki [1]: 20 nM
Ki [2]: 59 nM

C[C@@H]1CCCN1CCCOc1ccc(C2=NNC(=O)C(c3ccccn3)C2)cc1 (mixture of isomers)
Ki [1]: 8.8 nM
Ki [2]: 42 nM

CC1CC(=O)NN=C1c1ccc(OCCCN2CCC[C@H]2C)cc1 (mixture of isomers)
Ki [1]: 5.6 nM
Ki [2]: 18 nM

C[C@@H]1CCCN1CCCOc1ccc(C2=NN(c3ccccc3)C(=O)CC2)cc1
Ki [1]: 10 nM
Ki [2]: 16 nM

CC1CC(=O)NN=C1c1ccc(OCCCN2CCC[C@H]2C)cc1 (stereo in doubt; 19a) [listing 1 of 2 here]
bioavailability [3]: 40%
IC50 [4]: > 30000 nM
Cmax [5]: 301 ng/mL
AUC [6]: 1360 ng·h/mL
half-life [7]: 108 min
half-life [8]: > 40 min
IC50 [9]: > 30000 nM
EC50 [10]: 1.3 nM
Kp at 6 h ([11]; brain/plasma, read-out: BPR): 1.8
half-life [12]: > 40 min
Vd [13]: 3.5 L/kg
half-life [14]: > 40 min
IC50 [15]: > 30000 nM
Ki [1]: 6.8 nM
half-life [16]: > 40 min
half-life [17]: > 40 min
IC50 [18]: > 30000 nM
IC50 [19]: > 30000 nM
Ki [2]: 29 nM

O=C1CCC(c2ccc(OCCCN3CCCC3)cc2)=NN1
Ki [1]: 74 nM
Ki [2]: 256 nM

CC1CC(=O)NN=C1c1ccc(OCCCN2CCC[C@H]2C)cc1 (single isomer, unassigned; isomer 2)
F [20]: 52%
IC50 [4]: > 30000 nM
Cmax [21]: 274 ng/mL
AUC [22]: 1327 ng·h/mL
t1/2 [23]: 90 min
IC50 [9]: > 30000 nM
EC50 [10]: 1.4 nM
BPR ([11]; brain, 6 h): 1.9
Vd [24]: 3.4 L/kg
IC50 [15]: > 30000 nM
Ki [1]: 4.7 nM
IC50 [18]: > 30000 nM
IC50 [19]: > 30000 nM
Ki [2]: 20 nM

CC1CC(c2ccc(OCCCN3CCC[C@H]3C)cc2)=NNC1=O (mixture of isomers)
Ki [1]: 1.9 nM
Ki [2]: 4 nM

C[C@@H]1CCCN1CCCOc1ccc(C2=NN(CC(F)(F)F)C(=O)CC2)cc1
Ki [1]: 5 nM
Ki [2]: 10 nM

CC1CC(=O)NN=C1c1ccc(OCCCN2CCC[C@H]2C)cc1 (stereo in doubt; 19a) [listing 2 of 2 here]
Kb [25]: 0.68 nM

CC(C)N1N=C(c2ccc(OCCCN3CCC[C@H]3C)cc2)CCC1=O
Ki [1]: 9 nM
Ki [2]: 63 nM
